Laboratory results as given in patent US10538491B2, “4,5-substituted picolinamide and picolinonitrile metabotropic glutamate receptor 2 negative allosteric modulators” (Vanderbilt University, priority 2015, dated 2020).

Target: rat mGlu2 (Rattus norvegicus (Rat), UniProt P31421)
Assay: mGlu2 Ca2+ flux assay
Type: cell-based
Details: for IC50: Gα15 HEK293 cells stably expressing rat mGlu2, glutamate EC80, >10,000 = no plateau, >30,000 = no measurable activity; for remaining activity at 30 µM: read-out: rat mGlu2 Glu max
Method in brief: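 Gα15 HEK293 cells stably expressing rat mGlu2, Fluo-4 loaded; compound added, then glutamate at EC20 after 2.3 min and EC80 afterward, calcium flux read as F/F0. Peak amplitude around EC80 addition normalized to glutamate max; IC50 by unconstrained 4-parameter fit, top concentration 30 μM.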

[1] = amplitude of response in the presence of 30 μM test compound as percentage of maximal response to glutamate

rat mGlu2, sequence (P31421 19-872): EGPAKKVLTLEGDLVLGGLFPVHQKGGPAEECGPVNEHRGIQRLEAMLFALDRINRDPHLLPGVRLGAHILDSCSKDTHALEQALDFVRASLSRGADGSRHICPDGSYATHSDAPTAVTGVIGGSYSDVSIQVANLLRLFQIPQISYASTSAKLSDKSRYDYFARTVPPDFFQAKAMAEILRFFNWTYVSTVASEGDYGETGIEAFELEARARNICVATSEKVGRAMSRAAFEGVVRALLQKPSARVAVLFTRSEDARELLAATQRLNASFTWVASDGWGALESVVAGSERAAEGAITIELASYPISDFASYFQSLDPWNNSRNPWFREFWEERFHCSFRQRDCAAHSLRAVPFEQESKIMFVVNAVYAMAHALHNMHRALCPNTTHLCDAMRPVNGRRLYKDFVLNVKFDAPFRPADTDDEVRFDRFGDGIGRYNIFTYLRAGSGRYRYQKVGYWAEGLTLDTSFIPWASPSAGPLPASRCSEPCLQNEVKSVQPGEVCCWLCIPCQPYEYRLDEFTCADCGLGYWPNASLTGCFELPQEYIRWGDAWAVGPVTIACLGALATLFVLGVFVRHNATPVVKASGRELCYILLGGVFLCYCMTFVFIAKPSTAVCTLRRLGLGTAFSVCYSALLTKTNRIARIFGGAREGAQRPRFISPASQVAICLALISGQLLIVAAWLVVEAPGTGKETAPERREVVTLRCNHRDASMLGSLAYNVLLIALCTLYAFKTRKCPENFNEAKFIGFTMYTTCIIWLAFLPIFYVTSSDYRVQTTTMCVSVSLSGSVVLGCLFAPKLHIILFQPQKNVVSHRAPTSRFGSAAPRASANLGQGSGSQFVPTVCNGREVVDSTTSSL

| SMILES | IC50 | remaining activity at 30 µM [1] | rat mGlu2 Glu max [1] | NAM designation (concentration-dependent decrease in the glutamate EC80 response) |
| --- | --- | --- | --- | --- |
| NC(=O)c1cc(-c2ccc(F)cc2)c(OCCOCc2ccccc2)cn1 [Compound 130, 5-(2-(benzyloxy)ethoxy)-4-(4-fluorophenyl)picolinamide] | 2250 nM | 9.91% |  |  |
| Cn1ccc(COc2cnc(C#N)cc2-c2ccc(F)cc2)n1 [Compound 22, 4-(4-fluorophenyl)-5-((1-methyl-1H-pyrazol-3-yl)methoxy)picolinonitrile] | > 10000 nM | 11.1% |  |  |
| N#Cc1cc(COc2cnc(C(N)=O)cc2-c2ccc(F)cc2)ccc1F [Compound 148, 5-((3-cyano-4-fluorobenzyl)oxy)-4-(4-fluorophenyl)picolinamide] | 1680 nM | 0.43% |  |  |
| COc1ccc(-c2cc(C(N)=O)ncc2OCc2ccnc(C)c2)c(F)c1 [Compound 88, 4-(2-fluoro-4-methoxyphenyl)-5-((2-methylpyridin-4-yl)methoxy)picolinamide] | 29 ± 5 nM | 1.65 ± 0.23% |  |  |
| N#Cc1cc(-c2ccc(F)cc2)c(OCC2CCOCC2)cn1 [Compound 9, 4-(4-fluorophenyl)-5-((tetrahydro-2H-pyran-4-yl)methoxy)picolinonitrile] | > 30000 nM |  |  |  |
| Cc1ccc(OCCCOc2cnc(C#N)cc2-c2ccc(F)cc2)cn1 [Compound 68, 4-(4-fluorophenyl)-5-(3-((6-methylpyridin-3-yl)oxy)propoxy)picolinonitrile] | > 10000 nM | 29% |  |  |
| CN(CCOCc1cncc(F)c1)c1cnc(C#N)cc1-c1ccc(F)cc1 [Compound 76, 4-(4-Fluorophenyl)-5-((2-((5-fluoropyridin-3-yl)methoxy)ethyl)(methyl)amino)picolinonitrile] | > 10000 nM | 33.3% |  |  |
| Cc1cc(OCCOc2cnc(C(N)=O)cc2-c2ccc(F)cc2)ccn1 [Compound 118, 4-(4-fluorophenyl)-5-(2-((2-methylpyridin-4-yl)oxy)ethoxy)picolinamide] | 410 nM | 1.16% |  |  |
| NC(=O)c1cc(-c2ccc(F)cc2)c(OCCOc2cccc(F)c2)cn1 [Compound 108, 5-(2-(3-fluorophenoxy)ethoxy)-4-(4-fluorophenyl)picolinamide] | 2380 nM | 1.95% |  |  |
| NC(=O)c1cc(-c2ccc(F)cc2)c(NCCCN2CCOCC2)cn1 [Compound 137, 4-(4-fluorophenyl)-5-((3-morpholinopropyl)amino)picolinamide] | 9870 nM | -13.5% |  |  |
| Cn1cc(-c2cc(C(N)=O)ncc2OCc2cc(F)cc(F)c2)cn1 [Compound 80, 5-((3,5-difluorobenzyl)oxy)-4-(1-methyl-1H-pyrazol-4-yl)picolinamide] | 4130 nM | -0.09% |  |  |
| Cc1ccc(OCc2cnc(C(N)=O)cc2-c2ccc(F)cc2)cn1 [Compound 92, 4-(4-fluorophenyl)-5-(((6-methylpyridin-3-yl)oxy)methyl)picolinamide] | 1660 nM | -2.16% |  |  |
| CC(Oc1cnc(C#N)cc1-c1ccc(F)cc1)c1cccnc1 (stereo not shown) [Compound 16, 4-(4-fluorophenyl)-5-(1-(pyridin-3-yl)ethoxy)picolinonitrile] | > 30000 nM |  |  |  |
| NC(=O)c1cc(-c2ccc(F)cc2)c(OCCOc2ccccc2F)cn1 [Compound 109, 5-(2-(2-fluorophenoxy)ethoxy)-4-(4-fluorophenyl)picolinamide] |  | 2.16% |  |  |
| Cc1cc(COc2cnc(C(N)=O)cc2-c2cnn(C)c2)ccn1 [Compound 89, 4-(1-methyl-1H-pyrazol-4-yl)-5-((2-methylpyridin-4-yl)methoxy)picolinamide] | > 10000 nM | 30.7% |  |  |
| N#Cc1cc(-c2ccc(F)cc2)c(OCc2cc(F)cc(F)c2)cn1 [Compound 12, 5-((3,5-difluorobenzyl)oxy)-4-(4-fluorophenyl)picolinonitrile] | > 30000 nM |  |  |  |
| N#Cc1cc(-c2ccc(F)cc2)c(OC2CCN(c3ccnc(C(F)(F)F)c3)C2)cn1 (stereo not shown) [Compound 27, 4-(4-fluorophenyl)-5-((1-(2-(trifluoromethyl)pyridin-4-yl)pyrrolidin-3-yl)oxy)picolinonitrile] | > 30000 nM |  |  |  |
| NC(=O)c1cc(-c2ccc(F)cc2)c(OCc2ccc(C(F)(F)F)nc2)cn1 [Compound 43, 4-(4-fluorophenyl)-5-((6-(trifluoromethyl)pyridin-3-yl)methoxy)picolinamide] | 717 nM | 0.74% |  |  |
| COc1cc(COc2cnc(C(N)=O)cc2-c2ccc(F)cc2)ccn1 [Compound 46, 4-(4-fluorophenyl)-5-((2-methoxypyridin-4-yl)methoxy)picolinamide] | 204 nM | 2.17% |  |  |
| NC(=O)c1cc(-c2ccc(F)cc2)c(COc2cc(F)cc(F)c2)cn1 [Compound 90, 5-((3,5-difluorophenoxy)methyl)-4-(4-fluorophenyl)picolinamide] | 2030 nM | 0.21% |  |  |

| SMILES | IC50 | remaining activity at 30 µM [1] | rat mGlu2 Glu max [1] | NAM designation (concentration-dependent decrease in the glutamate EC80 response) |
| --- | --- | --- | --- | --- |
| NC(=O)c1cc(-c2ccc(F)cc2)c(OCCCOc2cccnc2)cn1 [Compound 128, 4-(4-fluorophenyl)-5-(3-(pyridin-3-yloxy)propoxy)picolinamide] | 3780 nM | 2.52% |  |  |
| NC(=O)c1cc(-c2ccc(F)cc2)c(OCCCN2CCC(F)(F)CC2)cn1 [Compound 96, 5-(3-(4,4-difluoropiperidin-1-yl)propoxy)-4-(4-fluorophenyl)picolinamide] | 3270 nM | 7.38% |  |  |
| Cc1ncc(OC(C)COc2cnc(C(N)=O)cc2-c2ccc(F)cc2)cn1 (stereo not shown) [Compound 122, 4-(4-fluorophenyl)-5-(2-((2-methylpyrimidin-5-yl)oxy)propoxy)picolinamide] | > 10000 nM | 8.04% |  |  |
| N#Cc1cc(OCCOc2cnc(C(N)=O)cc2-c2ccc(F)cc2)ccc1F [Compound 154, 5-(2-(3-cyano-4-fluorophenoxy)ethoxy)-4-(4-fluorophenyl)picolinamide] | 1390 nM | 4.19% |  |  |
| N#Cc1cc(-c2ccc(F)cc2)c(OCc2ccnc(C(F)(F)F)c2)cn1 [Compound 20, 4-(4-fluorophenyl)-5-((2-(trifluoromethyl)pyridin-4-yl)methoxy)picolinonitrile] | > 10000 nM | 37.9% |  |  |
| N#Cc1cc(-c2ccc(F)cc2)c(OCCCOc2ccc(C(F)(F)F)nc2)cn1 [Compound 66, 4-(4-fluorophenyl)-5-(3-((6-(trifluoromethyl)pyridin-3-yl)oxy)propoxy)picolinonitrile] | > 30000 nM |  |  |  |
| NC(=O)c1cc(-c2ccc(F)cc2)c(COc2ccnc(C(F)(F)F)c2)cn1 [Compound 93, 4-(4-fluorophenyl)-5-(((2-(trifluoromethyl)pyridin-4-yl)oxy)methyl)picolinamide] | 477 nM | 0.38% |  |  |
| CC(Oc1cnc(C(N)=O)cc1-c1ccc(F)cc1)c1cccnc1 (stereo not shown) [Compound 47, 4-(4-fluorophenyl)-5-(1-(pyridin-3-yl)ethoxy)picolinamide] | 2710 nM | 0.41% |  |  |
| N#Cc1cc(-c2ccc(F)cc2)c(OCc2cncc(Cl)c2)cn1 [Compound 13, 5-((5-chloropyridin-3-yl)methoxy)-4-(4-fluorophenyl)picolinonitrile] | > 30000 nM |  |  |  |
| N#Cc1cncc(COc2cnc(C(N)=O)cc2-c2ccc(F)cc2)c1 [Compound 151] | 683 nM |  | 2.05% |  |
| CN(CCN1CCOCC1)c1cnc(C#N)cc1-c1ccc(F)cc1 [Compound 3, 4-(4-fluorophenyl)-5-(methyl(2-morpholinoethyl)amino)picolinonitrile] | > 10000 nM | 52.4% |  |  |
| CC(CNc1cnc(C#N)cc1-c1ccc(F)cc1)N1CCOCC1 (stereo not shown) [Compound 5, 4-(4-fluorophenyl)-5-((2-morpholinopropyl)amino)picolinonitrile] | > 10000 nM | 36.2% |  |  |
| N#Cc1cccc(COc2cnc(C(N)=O)cc2-c2ccc(F)cc2)c1F [Compound 149, 5-((3-cyano-2-fluorobenzyl)oxy)-4-(4-fluorophenyl)picolinamide] | 254 nM | 1.66% |  |  |
| NC(=O)c1cc(-c2ccc(F)cc2)c(OCCOc2cccc(Br)c2)cn1 [Compound 106, 5-(2-(3-bromophenoxy)ethoxy)-4-(4-fluorophenyl)picolinamide] | 3440 nM | 26.5% |  | (Partial NAM) |
| COc1ccc(-c2cc(C(N)=O)ncc2OCc2ccc(C)nc2)c(F)c1 [Compound 83, 4-(2-fluoro-4-methoxyphenyl)-5-((6-methylpyridin-3-yl)methoxy)picolinamide] | 216 nM | 1% |  |  |
| N#Cc1cc(F)cc(OCCOc2cnc(C(N)=O)cc2-c2ccc(F)cc2)c1 [Compound 153, 5-(2-(3-cyano-5-fluorophenoxy)ethoxy)-4-(4-fluorophenyl)picolinamide] | 1370 nM | 1.58% |  |  |
| NC(=O)c1cc(-c2ccc(F)cc2)c(OCCOc2ccc(F)cc2)cn1 [Compound 107, 5-(2-(4-fluorophenoxy)ethoxy)-4-(4-fluorophenyl)picolinamide] | 8510 nM | -10.7% |  |  |
| NC(=O)c1cc(-c2ccc(F)cc2)c(OCc2ccc(Br)cc2)cn1 [Compound 33, 5-((4-bromobenzyl)oxy)-4-(4-fluorophenyl)picolinamide] | 1690 nM | 2.29% |  |  |
| Cc1ccc(COc2cnc(C#N)cc2-c2ccc(F)cc2)cn1 [Compound 14, 4-(4-fluorophenyl)-5-((6-methylpyridin-3-yl)methoxy)picolinonitrile] | > 30000 nM |  |  |  |
| N#Cc1cc(-c2ccc(F)cc2)c(NCCCN2CCOCC2)cn1 [Compound 6, 4-(4-fluorophenyl)-5-((3-morpholinopropyl)amino)picolinonitrile] | > 10000 nM | 49.2% |  |  |
